“And” between values parts separate entries of the source, which are not always exact repeats. Equal entries are not always repeated. Toxic doses and inconclusive results are not listed.
System: P388 leukemia ip, CD2F1 mice, survival T/C
Test: NCI In Vivo Anticancer Drug Screen. Data for tumor model P388 Leukemia (intraperitoneal) in CD2F1 (CDF1) mice
Details: endpoint: median survival time, higher = longer survival
Method in brief: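 Mice carrying the transplanted tumor received test compound or vehicle. Survival was recorded in each group, and the value is the treated-group measurement divided by that of the vehicle-treated control group.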

[1] = dose: 12.5 mg/kg/injection, schedule: Q01DX009 (ip), vehicle: saline
[2] = dose: 25.0 mg/kg/injection, schedule: Q01DX009 (ip), vehicle: saline
[3] = dose: 50.0 mg/kg/injection, schedule: Q01DX009 (ip), vehicle: saline
[4] = dose: 100.0 mg/kg/injection, schedule: Q01DX009 (ip), vehicle: saline
[5] = dose: 50.0 mg/kg/injection, schedule: Q01DX005 (ip), vehicle: Klucel (hydroxypropylcellulose) (HPC)
[6] = dose: 100.0 mg/kg/injection, schedule: Q01DX005 (ip), vehicle: Klucel (hydroxypropylcellulose) (HPC)
[7] = dose: 200.0 mg/kg/injection, schedule: Q01DX005 (ip), vehicle: Klucel (hydroxypropylcellulose) (HPC)
[8] = dose: 100.0 mg/kg/injection, schedule: Q01DX009 (ip), vehicle: saline with Tween-80
[9] = dose: 200.0 mg/kg/injection, schedule: Q01DX009 (ip), vehicle: saline with Tween-80
[10] = dose: 100.0 mg/kg/injection, schedule: Q01DX001 (ip), vehicle: saline
[11] = dose: 200.0 mg/kg/injection, schedule: Q01DX001 (ip), vehicle: saline
[12] = dose: 400.0 mg/kg/injection, schedule: Q01DX001 (ip), vehicle: saline

For `Cc1ccc2c(Nc3ccc(NS(C)(=O)=O)cc3C)c3ccccc3nc2c1`, the T/C [1] was 150 % of control and 161 % of control, the T/C (dose: 12.5 mg/kg/injection, schedule: Q04DX003 (ip), vehicle: saline) was 98 % of control and the T/C [2] was 156 % of control and 157 % of control. The T/C (dose: 25.0 mg/kg/injection, schedule: Q04DX003 (ip), vehicle: saline) was 96 % of control, the T/C (dose: 50.0 mg/kg/injection, schedule: Q04DX003 (ip), vehicle: saline) was 97 % of control and the T/C (dose: 100.0 mg/kg/injection, schedule: Q04DX003 (ip), vehicle: saline) was 95 % of control.

In the case of `C1CCC(CCCCc2nn[nH]n2)CC1`, the T/C (dose: 50.0 mg/kg/injection, schedule: Q01DX005 (ip), vehicle: saline with Tween-80) was 102 % of control and the T/C (dose: 100.0 mg/kg/injection, schedule: Q01DX005 (ip), vehicle: saline with Tween-80) was 100 % of control.

`O=Cc1cccc(OC(=O)Oc2cccc(C=O)c2)c1` was tested, and the T/C (dose: 100.0 mg/kg/injection, schedule: Q01DX001 (ip), vehicle: saline with Tween-80) was 101 % of control, the T/C (dose: 200.0 mg/kg/injection, schedule: Q01DX001 (ip), vehicle: saline with Tween-80) was 99 % of control and the T/C (dose: 400.0 mg/kg/injection, schedule: Q01DX001 (ip), vehicle: saline with Tween-80) was 104 % of control.

With `O=C(O)c1cc(-c2ccc(O)c(O)c2)nc2cc3ccccc3cc12` the T/C (dose: 50.0 mg/kg/injection, schedule: Q01DX009 (ip), vehicle: Klucel (hydroxypropylcellulose) (HPC)) was 97 % of control, the T/C (dose: 100.0 mg/kg/injection, schedule: Q01DX009 (ip), vehicle: Klucel (hydroxypropylcellulose) (HPC)) was 108 % of control and the T/C (dose: 200.0 mg/kg/injection, schedule: Q01DX009 (ip), vehicle: Klucel (hydroxypropylcellulose) (HPC)) was 92 % of control.

For `C=CCCCCCCCCCCCCCC1=NCC[N+]1(CCO)CC(O)COc1cc(Cl)c(Cl)c(Cl)c1` (stereo not given), the T/C [1] was 102 % of control, the T/C [2] was 106 % of control and the T/C [3] was 105 % of control and 108 % of control. The T/C [4] was 90 % of control.

`CSC(=S)N1CC(=O)N(C(=S)SC)CC1=O` was tested, and the T/C [5] was 87 % of control, the T/C [6] was 92 % of control and the T/C [7] was 86 % of control.

For `CCOC(=O)c1ccc(N(CC)CC)cc1`, the T/C [8] was 100 % of control, the T/C [9] was 104 % of control and the T/C (dose: 400.0 mg/kg/injection, schedule: Q01DX009 (ip), vehicle: saline with Tween-80) was 100 % of control.

With `O=C1CC2(CCCC2)C(=O)N1c1cccc(Cl)c1` the T/C (dose: 100.0 mg/kg/injection, schedule: Q01DX001 (ip), vehicle: Klucel (hydroxypropylcellulose) (HPC)) was 97 % of control, the T/C (dose: 200.0 mg/kg/injection, schedule: Q01DX001 (ip), vehicle: Klucel (hydroxypropylcellulose) (HPC)) was 100 % of control and the T/C (dose: 400.0 mg/kg/injection, schedule: Q01DX001 (ip), vehicle: Klucel (hydroxypropylcellulose) (HPC)) was 91 % of control.

In the case of `O=C(NCC(=O)N1CCCC1)N/N=C/c1ccccc1O`, the T/C [5] was 102 % of control, the T/C [6] was 102 % of control and the T/C [7] was 98 % of control.

`[O-]c1nn(C2OC(CO)C(O)C2O)c2cccc[n+]12` (stereo not given) was tested, and the T/C [10] was 110 % of control, the T/C [11] was 108 % of control and the T/C [12] was 95 % of control.

With `O=[N+]([O-])c1ccc2nc(N/N=C/COC/C=N/Nc3nc4ccc([N+](=O)[O-])cc4s3)sc2c1` the T/C [10] was 94 % of control, the T/C [11] was 104 % of control and the T/C [12] was 96 % of control.

With `Nc1nc2ncn(COC(CO)CO)c2c(=O)[nH]1` the T/C (dose: 60.0 mg/kg/injection, schedule: Q01DX005 (ip), vehicle: saline with Tween-80) was 100 % of control, the T/C (dose: 120.0 mg/kg/injection, schedule: Q01DX005 (ip), vehicle: saline with Tween-80) was 98 % of control and the T/C (dose: 240.0 mg/kg/injection, schedule: Q01DX005 (ip), vehicle: saline with Tween-80) was 100 % of control.

For `NCc1ccc(Cl)c(Cl)c1`, the T/C (dose: 6.25 mg/kg/injection, schedule: Q01DX009 (ip), vehicle: saline) was 110 % of control and 116 % of control, the T/C [1] was 104 % of control and 107 % of control and the T/C [2] was 100 % of control and 103 % of control. The T/C [3] was 101 % of control and 104 % of control and the T/C [4] was 103 % of control and 109 % of control.

`O=c1c(-c2ccccc2)c(O)on1/C=C1/C=CC=N1` was tested, and the T/C (dose: 50.0 mg/kg/injection, schedule: Q01DX009 (ip), vehicle: saline with Tween-80) was 105 % of control, the T/C [8] was 95 % of control and the T/C [9] was 103 % of control.

With `O=S(OC(c1ccccc1)(C(F)(F)F)C(F)(F)F)OC(c1ccccc1)(C(F)(F)F)C(F)(F)F` the T/C (dose: 32.0 mg/kg/injection, schedule: Q01DX009 (ip), vehicle: Klucel (hydroxypropylcellulose) (HPC)) was 97 % of control, the T/C (dose: 64.0 mg/kg/injection, schedule: Q01DX009 (ip), vehicle: Klucel (hydroxypropylcellulose) (HPC)) was 101 % of control and the T/C (dose: 128.0 mg/kg/injection, schedule: Q01DX009 (ip), vehicle: Klucel (hydroxypropylcellulose) (HPC)) was 101 % of control.

Reference: PubChem BioAssay AID330 (DTP/NCI, 2004)
